Laboratory results as given in BindingDB's records for doi:10.1007/s00259-006-0324-y (Columbia University, 2007).
pKi: −log10 of the molar value.

Legend:
[1] = biological target: Histamine H2 receptor (Bos mutus, UniProt L8IRW0)
[2] = biological target: Potassium voltage-gated channel subfamily H member 2 (Bos taurus, UniProt A5PKI1)
[3] = biological target: Solute carrier family 22 member 1 (Bos taurus, UniProt A7MBE0)
[4] = biological target: Histamine receptor H3 (Bos taurus, UniProt F1MML8)
[5] = biological target: Histamine H1 receptor (Bos taurus, UniProt A5D795)
[6] = biological target: Thromboxane-A synthase (Bos taurus, UniProt Q2KIG5)
[7] = biological target: Beta-arrestin-2 (Bos taurus, UniProt P32120)
[8] = biological target: Sodium-dependent dopamine transporter (Bos taurus, UniProt P27922)
[9] = biological target: Vasopressin V1a receptor (Bos taurus, UniProt A2VDS9)
Chain of Vasopressin V1a receptor (A2VDS9 whole entry): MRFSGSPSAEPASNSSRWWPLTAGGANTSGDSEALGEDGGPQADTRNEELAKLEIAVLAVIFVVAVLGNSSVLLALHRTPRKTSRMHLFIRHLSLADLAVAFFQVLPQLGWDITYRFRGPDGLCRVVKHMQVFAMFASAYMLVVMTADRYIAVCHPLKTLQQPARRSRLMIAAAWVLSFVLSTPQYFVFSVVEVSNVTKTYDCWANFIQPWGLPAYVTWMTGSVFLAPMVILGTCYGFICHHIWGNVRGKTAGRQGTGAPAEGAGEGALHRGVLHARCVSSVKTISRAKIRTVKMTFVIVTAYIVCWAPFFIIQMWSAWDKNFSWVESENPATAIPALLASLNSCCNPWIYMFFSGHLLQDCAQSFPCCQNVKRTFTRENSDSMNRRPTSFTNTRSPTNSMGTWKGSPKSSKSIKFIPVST

[10] = biological target: 5-hydroxytryptamine 1D receptor (Bos taurus, UniProt Q8MI13)
[11] = biological target: Voltage-dependent L-type calcium channel subunit beta-2 (Bos taurus, UniProt Q9MZL5)
[12] = biological target: Dopamine receptor D4 (Bos taurus, UniProt Q8WNT0)
[13] = biological target: Nischarin (Bos mutus, UniProt L8IEU8)
[14] = biological target: Kappa-type opioid receptor (Bos taurus, UniProt Q2KIP6)
Chain of Kappa-type opioid receptor (Q2KIP6 whole entry): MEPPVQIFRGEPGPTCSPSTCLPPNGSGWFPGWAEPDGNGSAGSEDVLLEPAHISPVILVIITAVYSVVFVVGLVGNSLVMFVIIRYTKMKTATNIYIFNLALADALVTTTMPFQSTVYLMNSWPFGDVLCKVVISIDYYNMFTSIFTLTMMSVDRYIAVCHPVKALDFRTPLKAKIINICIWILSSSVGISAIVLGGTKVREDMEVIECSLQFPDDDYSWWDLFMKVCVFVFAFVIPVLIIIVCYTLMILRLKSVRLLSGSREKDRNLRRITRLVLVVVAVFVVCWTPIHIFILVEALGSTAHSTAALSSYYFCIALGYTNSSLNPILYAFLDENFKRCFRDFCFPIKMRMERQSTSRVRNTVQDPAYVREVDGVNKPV

[15] = biological target: 4-aminobutyrate aminotransferase, mitochondrial (Bos taurus, UniProt Q9BGI0)
Chain of 4-aminobutyrate aminotransferase, mitochondrial (Q9BGI0 whole entry): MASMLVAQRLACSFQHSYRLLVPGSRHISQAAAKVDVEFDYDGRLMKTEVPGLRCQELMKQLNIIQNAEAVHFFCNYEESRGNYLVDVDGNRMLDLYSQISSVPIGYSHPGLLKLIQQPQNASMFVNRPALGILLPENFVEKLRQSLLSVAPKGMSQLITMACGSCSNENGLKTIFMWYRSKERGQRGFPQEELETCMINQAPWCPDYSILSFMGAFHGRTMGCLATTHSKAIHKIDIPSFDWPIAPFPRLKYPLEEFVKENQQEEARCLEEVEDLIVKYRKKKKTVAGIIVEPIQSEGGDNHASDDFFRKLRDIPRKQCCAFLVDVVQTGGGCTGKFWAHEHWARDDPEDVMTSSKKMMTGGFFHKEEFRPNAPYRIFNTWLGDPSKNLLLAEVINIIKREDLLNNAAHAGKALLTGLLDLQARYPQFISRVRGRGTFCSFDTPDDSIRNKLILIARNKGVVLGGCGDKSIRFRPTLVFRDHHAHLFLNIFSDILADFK

[16] = biological target: Beta-arrestin-1 (Bos taurus, UniProt P17870)
Chain of Beta-arrestin-1 (P17870 whole entry): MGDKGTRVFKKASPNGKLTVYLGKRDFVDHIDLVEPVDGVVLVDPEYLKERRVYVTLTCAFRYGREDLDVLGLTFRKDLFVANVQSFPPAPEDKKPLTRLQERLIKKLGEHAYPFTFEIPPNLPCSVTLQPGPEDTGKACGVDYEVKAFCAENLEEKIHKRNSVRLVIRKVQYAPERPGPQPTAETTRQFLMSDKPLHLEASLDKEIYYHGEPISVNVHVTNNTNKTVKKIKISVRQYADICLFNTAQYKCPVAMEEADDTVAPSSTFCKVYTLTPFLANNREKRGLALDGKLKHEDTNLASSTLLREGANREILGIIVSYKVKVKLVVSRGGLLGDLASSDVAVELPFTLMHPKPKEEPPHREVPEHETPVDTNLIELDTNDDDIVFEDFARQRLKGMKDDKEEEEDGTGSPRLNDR

[17] = biological target: Protein lifeguard 1 (Bos taurus, UniProt Q32L53)
[18] = biological target: 5-hydroxytryptamine receptor 6 (Bos mutus, UniProt L8HST4)
Chain of 5-hydroxytryptamine receptor 6 (L8HST4 whole entry): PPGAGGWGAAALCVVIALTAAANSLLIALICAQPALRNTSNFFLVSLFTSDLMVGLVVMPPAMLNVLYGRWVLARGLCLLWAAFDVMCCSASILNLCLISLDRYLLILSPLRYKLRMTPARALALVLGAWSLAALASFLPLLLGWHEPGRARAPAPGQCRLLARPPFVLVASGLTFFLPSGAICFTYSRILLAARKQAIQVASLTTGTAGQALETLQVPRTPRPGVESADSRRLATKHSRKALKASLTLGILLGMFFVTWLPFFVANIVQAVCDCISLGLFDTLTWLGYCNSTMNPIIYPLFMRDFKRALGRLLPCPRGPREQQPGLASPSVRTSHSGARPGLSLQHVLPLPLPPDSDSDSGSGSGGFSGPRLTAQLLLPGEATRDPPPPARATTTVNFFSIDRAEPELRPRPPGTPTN

[19] = biological target: 5-hydroxytryptamine receptor 3A (Bos taurus, UniProt F1N4Y2)
Chain of 5-hydroxytryptamine receptor 3A (F1N4Y2 whole entry): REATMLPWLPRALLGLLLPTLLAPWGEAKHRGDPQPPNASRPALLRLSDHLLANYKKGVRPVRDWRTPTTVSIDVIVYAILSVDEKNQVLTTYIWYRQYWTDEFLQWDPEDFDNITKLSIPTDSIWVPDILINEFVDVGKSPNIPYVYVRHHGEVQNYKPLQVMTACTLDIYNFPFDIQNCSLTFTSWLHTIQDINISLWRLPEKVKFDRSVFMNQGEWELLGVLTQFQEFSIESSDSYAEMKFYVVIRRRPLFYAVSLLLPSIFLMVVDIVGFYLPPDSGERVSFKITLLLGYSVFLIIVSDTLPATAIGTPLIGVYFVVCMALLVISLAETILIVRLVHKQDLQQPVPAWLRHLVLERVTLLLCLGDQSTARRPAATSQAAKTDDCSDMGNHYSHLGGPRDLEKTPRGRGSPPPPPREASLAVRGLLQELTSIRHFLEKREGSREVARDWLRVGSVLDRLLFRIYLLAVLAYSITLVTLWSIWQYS

[20] = biological target: Substance-K receptor (Bos taurus, UniProt P05363)
[21] = biological target: Multidrug resistance protein 1 (Bos taurus, UniProt Q65A17)
Chain of Multidrug resistance protein 1 (Q65A17 whole entry): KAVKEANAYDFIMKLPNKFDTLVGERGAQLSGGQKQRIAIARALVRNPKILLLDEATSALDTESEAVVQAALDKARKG

[22] = biological target: Muscarinic acetylcholine receptor M2 (Bos taurus, UniProt P41985)
[23] = biological target: 5-hydroxytryptamine receptor 5A (Bos mutus, UniProt L8HQU1)
[24] = biological target: Vasopressin V2 receptor (Bos taurus, UniProt P48044)
[25] = biological target: 5-hydroxytryptamine receptor 1B (Bos mutus, UniProt L8IGV0)
[26] = biological target: Mu-type opioid receptor (Bos taurus, UniProt P79350)
[27] = biological target: Glutamate receptor (Bos taurus, UniProt E1BGZ0)
[28] = biological target: Glutamate receptor (Bos taurus, UniProt A4FV91)
[29] = biological target: 5-hydroxytryptamine receptor 7 (Bos mutus, UniProt L8II28)
[30] = biological target: D(1A) dopamine receptor (Bos taurus, UniProt Q95136)
[31] = biological target: Vesicle amine transport protein 1 homolog (T. californica)-like (Bos taurus, UniProt Q29RL6)
Chain of Vesicle amine transport protein 1 homolog (T. californica)-like (Q29RL6 whole entry): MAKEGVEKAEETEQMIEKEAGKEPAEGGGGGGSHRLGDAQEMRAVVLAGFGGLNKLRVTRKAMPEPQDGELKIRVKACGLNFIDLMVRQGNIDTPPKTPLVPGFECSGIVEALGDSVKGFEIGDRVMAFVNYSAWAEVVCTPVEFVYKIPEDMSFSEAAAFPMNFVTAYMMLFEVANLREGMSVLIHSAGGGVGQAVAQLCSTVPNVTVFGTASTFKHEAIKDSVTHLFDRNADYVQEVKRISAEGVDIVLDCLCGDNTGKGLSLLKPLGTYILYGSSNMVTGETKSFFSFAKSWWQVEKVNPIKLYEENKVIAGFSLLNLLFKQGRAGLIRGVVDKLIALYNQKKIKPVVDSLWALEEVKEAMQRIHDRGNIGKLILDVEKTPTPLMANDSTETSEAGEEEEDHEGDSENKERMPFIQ

[32] = biological target: Sodium-dependent noradrenaline transporter (Bos taurus, UniProt P51143)
Chain of Sodium-dependent noradrenaline transporter (P51143 whole entry): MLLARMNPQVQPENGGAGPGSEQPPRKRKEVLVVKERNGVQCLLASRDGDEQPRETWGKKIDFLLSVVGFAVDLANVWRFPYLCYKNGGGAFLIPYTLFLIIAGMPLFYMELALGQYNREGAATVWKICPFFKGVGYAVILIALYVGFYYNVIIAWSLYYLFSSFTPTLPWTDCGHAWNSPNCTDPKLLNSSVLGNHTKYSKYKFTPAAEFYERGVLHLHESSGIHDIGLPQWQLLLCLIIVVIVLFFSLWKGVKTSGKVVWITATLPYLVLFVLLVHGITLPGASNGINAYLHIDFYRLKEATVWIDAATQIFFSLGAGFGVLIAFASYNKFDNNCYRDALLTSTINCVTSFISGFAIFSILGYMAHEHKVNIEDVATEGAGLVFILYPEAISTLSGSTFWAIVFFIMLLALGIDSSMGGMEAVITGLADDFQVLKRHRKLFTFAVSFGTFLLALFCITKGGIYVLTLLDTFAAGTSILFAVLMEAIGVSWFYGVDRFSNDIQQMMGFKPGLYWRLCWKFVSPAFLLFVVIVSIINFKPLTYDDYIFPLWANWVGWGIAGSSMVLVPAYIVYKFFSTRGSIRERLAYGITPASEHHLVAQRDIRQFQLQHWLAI

[33] = biological target: Vasopressin V1b receptor (Bos taurus, UniProt F1ME85)
[34] = biological target: D(2) dopamine receptor (Bos taurus, UniProt P20288)
[35] = biological target: Beta-2 adrenergic receptor (Bos taurus, UniProt Q28044)
[36] = biological target: Cannabinoid receptor 2 (Bos taurus, UniProt E1B9P2)
Chain of Cannabinoid receptor 2 (E1B9P2 whole entry): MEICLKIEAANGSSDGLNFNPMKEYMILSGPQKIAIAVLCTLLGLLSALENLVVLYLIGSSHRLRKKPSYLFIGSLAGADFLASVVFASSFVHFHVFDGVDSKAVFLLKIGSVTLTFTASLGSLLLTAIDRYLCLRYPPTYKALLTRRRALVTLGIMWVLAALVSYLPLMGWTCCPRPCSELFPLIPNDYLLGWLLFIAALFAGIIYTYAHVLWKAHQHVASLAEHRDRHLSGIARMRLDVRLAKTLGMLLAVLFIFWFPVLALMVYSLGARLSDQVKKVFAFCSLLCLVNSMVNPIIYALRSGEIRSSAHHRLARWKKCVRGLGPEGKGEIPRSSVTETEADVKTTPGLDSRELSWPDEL

[37] = biological target: 5-hydroxytryptamine receptor 2B (Bos taurus, UniProt Q8MI09)
[38] = biological target: Gamma-aminobutyric acid receptor subunit alpha-1 (Bos taurus, UniProt P08219)
[39] = biological target: 5-hydroxytryptamine receptor 2A (Bos taurus, UniProt Q75Z89)
[40] = biological target: Neuromedin-K receptor (Bos mutus, UniProt L8IYF9)
Chain of Neuromedin-K receptor (L8IYF9 whole entry): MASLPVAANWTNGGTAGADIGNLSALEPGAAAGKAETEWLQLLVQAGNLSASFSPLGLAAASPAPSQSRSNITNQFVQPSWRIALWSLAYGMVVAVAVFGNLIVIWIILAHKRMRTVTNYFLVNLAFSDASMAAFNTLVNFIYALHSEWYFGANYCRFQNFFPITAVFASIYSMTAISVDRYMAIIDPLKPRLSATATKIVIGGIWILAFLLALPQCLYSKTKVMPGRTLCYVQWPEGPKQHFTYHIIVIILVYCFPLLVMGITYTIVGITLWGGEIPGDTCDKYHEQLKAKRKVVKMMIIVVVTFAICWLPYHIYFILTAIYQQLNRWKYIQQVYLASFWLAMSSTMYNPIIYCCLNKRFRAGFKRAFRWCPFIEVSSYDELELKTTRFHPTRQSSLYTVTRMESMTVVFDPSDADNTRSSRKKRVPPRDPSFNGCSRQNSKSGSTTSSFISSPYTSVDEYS

Chain of Histamine H2 receptor (L8IRW0 whole entry): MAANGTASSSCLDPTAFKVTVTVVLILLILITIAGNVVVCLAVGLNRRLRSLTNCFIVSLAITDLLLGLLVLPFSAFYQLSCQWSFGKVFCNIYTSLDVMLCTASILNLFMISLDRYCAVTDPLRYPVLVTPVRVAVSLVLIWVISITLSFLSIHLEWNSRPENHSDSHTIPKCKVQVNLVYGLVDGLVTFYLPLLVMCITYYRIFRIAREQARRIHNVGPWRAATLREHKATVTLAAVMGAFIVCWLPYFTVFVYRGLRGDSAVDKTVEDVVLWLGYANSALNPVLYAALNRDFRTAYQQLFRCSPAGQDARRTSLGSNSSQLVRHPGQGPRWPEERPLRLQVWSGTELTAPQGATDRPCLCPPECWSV

**Q.** Which results are given for COc1ccccc1N1CCN(CCCCn2ncc(=O)n(C)c2=O)CC1 [NSC_11603174]?
**A.** pKi [1]: 5.67; pKi [2]: < 5.00; pKi [3]: 8.17; pKi [4]: < 5.00; pKi [5]: 5.99; pKi [6]: < 5.00; pKi [7]: < 5.00; pKi [8]: < 5.00; pKi [9]: < 5.00; pKi [10]: 7.05; pKi [11]: < 5.00; pKi [12]: 7.66; pKi [13]: < 5.00; pKi [14]: < 5.00; pKi [15]: < 5.00; pKi [16]: < 5.00; pKi [17]: < 5.00; pKi [18]: < 5.00; pKi [19]: < 5.00; pKi [20]: < 5.00; pKi [21]: < 5.00; pKi [22]: < 5.00; pKi [23]: < 5.00; pKi [24]: < 5.00; pKi [25]: 6.19; pKi [26]: < 5.00; pKi [27]: < 5.00; pKi [28]: < 5.00; pKi [29]: 7.89; pKi [30]: < 5.00; pKi [31]: < 5.00; pKi [32]: < 5.00; pKi [33]: < 5.00; pKi [34]: < 5.00; pKi [35]: < 5.00; pKi [36]: < 5.00; pKi [37]: 7.13; pKi [38]: < 5.00; pKi [39]: 5.30; pKi [40]: < 5.00
